Measurements from patent US10538571B2, “Compositions and methods for neurological diseases” (Coda Biotherapeutics, Inc., priority 2017, dated 2020).

Experiments:
[1] = system: spared nerve injury (SNI) model; assay: Spared nerve injury (SNI) model of neuropathic pain, mechanical withdrawal threshold (von Frey, up-down method) after AAV.hSYN-α7-nAChR/GlyRα1 injection; assay type: in vivo, rat; conditions: for reversal of mechanical hypersensitivity: single IP injection
Excerpt: Eight expression cassettes are constructed using standard molecular biology techniques. All contain a human synapsin-1 (hSYN) promoter linked to engineered chimeric receptors comprising a ligand binding domain of α7-nAChR and a Cys-loop domain and ion pore domain of GlyRα1. Their design is as follows:
These cassettes are subcloned into AAV bacmids, purified, transfected into Sf9 insect cells to produce recombinant bacuvlovirus, and then amplified. Sf9 cells are double infected using the amplified recombinant baculovirus containing the hSYN-α7-nAChR/GlyRα1 cassettes and another recombinant baculovirus containing the Rep and AAV6(Y705+731F+T492V) Cap genes to produce recombinant AAV vectors. The viral vectors are purified, viral titer determined using qPCR, and SDS-PAGE used to verify the purity of AAV vectors.
To produce mechanical hypersensitivity in a model that mimics a neuropathic pain condition, the spared nerve injury (SNI) model (a validated model of mechanical allodynia) is used (Shields et al., 2003, The Journal of Pain, 4, 465-470). This model is produced by the sectioning of the common peroneal and the sural nerves and isolating the tibial branch. Mechanical withdrawal threshold is assessed by placing rats on an elevated wire-mesh grid and stimulating the plantar surface of the hind paw with von Frey filaments.
A dorsal hemilaminectomy is made at the level of the lumbar enlargement to expose two segments (about 1.5-2 mm) of lumbar spinal cord, after which the dura mater is incised and reflected. The viral solution is loaded into a glass micropipette (prefilled with mineral oil). The micropipette is connected to a manual micro-injector mounted on a stereotactic apparatus. The viral solution is targeted to the dorsal horn (left side). Along the rostro-caudal axis within the exposed region, 6 injections of 240 nl each are performed, in an equidistant linear fashion. After each injection, 1 min of resting time is observed and then the muscle layer is sutured, the skin closed with staples, and the animals were allowed to recover with heated-pad before they were returned to their home cages. Animals are perfused for histological analysis after the last behavior test.
The injection is performed with a borosilicate glass capillary (0.78/1 mm internal/external diameters) pulled to a fine point, attached by polyethylene tubing (0.4/0.8 mm internal/external diameters) to a syringe mounted in a microinjection pump. The needle is mounted on an extended arm of a stereotaxic frame swung to the outside (used to hold and manipulate the needle only). Tubing, syringe, and needle are all filled with water. One microliter air is taken up into the needle followed by 3 μL of the viral vector solution. The needle is loaded separately with this volume for each injection. Animals are anesthetized prior to surgery. Following an incision along the dorsal midline, the L4 and L5 DRG are exposed by removal of the lateral processes of the vertebrae. The epineurium lying over the DRG is opened, and the glass needle inserted into the ganglion, to a depth of 400 μm from the surface of the exposed ganglion. After a 3-minute delay to allow sealing of the tissue around the glass capillary tip, 1.1 μL virus solution was injected at a rate of 0.2 μL/minute. After a further delay of 2 minutes, the needle is removed. The L4 ganglion is injected first followed by the L5 ganglion. The muscles overlying the spinal cord are loosely sutured together with a 5-0 suture and the wound closed. Animals are allowed to recover at 37° C. and received postoperative analgesia.
Rats are first anesthetized and then placed vertically with their head fixed in a stereotaxic frame. An incision is made in the base of the neck to expose the groove in the nuchal crest. An incision is made (1-2 mm) in the cisternal membrane to a depth such that cerebrospinal fluid leaks out. […]

[2] = target: T1, SEQ ID NO:33 with substitution L131S (Homo sapiens, UniProt P36544, F159M/H163T/I152M/L131S/R155K/V154L/W156N/Y151P); assay: Electrophysiology, automated patch clamp in HEK293T cells; assay type: cell-based; conditions: FIG. 10A
T1 construct: expressed in transfected cells; host or cells: Lenti-X 293T (HEK293T) cells, pcDNA3.1(+) plasmid
T1 sequence (P36544 with tags, fused parts or gaps L131S/Y151P/I152M/V154L/R155K/W156N/F159M/H163T): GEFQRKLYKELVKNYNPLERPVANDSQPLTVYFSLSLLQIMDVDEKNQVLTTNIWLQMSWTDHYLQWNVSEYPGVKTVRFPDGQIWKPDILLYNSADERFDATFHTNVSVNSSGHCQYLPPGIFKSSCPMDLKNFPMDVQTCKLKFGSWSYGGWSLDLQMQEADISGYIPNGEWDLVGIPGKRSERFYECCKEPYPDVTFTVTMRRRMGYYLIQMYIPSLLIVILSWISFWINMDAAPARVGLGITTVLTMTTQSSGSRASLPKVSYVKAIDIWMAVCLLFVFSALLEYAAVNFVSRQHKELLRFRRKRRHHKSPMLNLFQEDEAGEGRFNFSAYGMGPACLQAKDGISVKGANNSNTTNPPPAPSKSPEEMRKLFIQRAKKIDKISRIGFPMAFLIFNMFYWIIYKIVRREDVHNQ
Procedure: (§1) For HEK293T studies, cDNAs encoding ion channels were cloned into pcDNA3.1 using standard recombination techniques. HEK293T cells from Clontech (Lenti-X™ 293T Cell Line) were cultured in DMEM supplemented with 10% FBS and 1% Pen/Strep to 40-50% confluence using standard cell culture protocols, transfected with ion channel plasmids at a concentration of 18 μg per 15 cm dish using Fugene 6, and grown for an additional 24 hours. Cells were then assayed on a medium throughput electrophysiological system (IonFluxHT and/or Mercury, Fluxion Biosciences) in which dose-response relationships may be assessed through a microfluidics-based platform for establishing whole cell configurations. Ensemble plates were primed with extracellular buffer (140 mM NaCl, 5 mM KCl, 2 mM CaCl2, 1 mM MgCl2, 10 mM HEPES, and 10 mM glucose, pH 7.2 with NaOH, mOsm 310), intracellular buffer (145 mM CsCl, 2 mM CaCl2, 2 mM MgCl2, 10 mM HEPES, and 10 mM EGTA, pH 7.2 with CsOH, mOsm 305), as adapted from Lynagh and Lynch, and test compounds (stocks prepared fresh) diluted in extracellular buffer. Cells were then released from the plate with Accutase, centrifuged, resuspended in extracellular buffer, and loaded into Ensemble plates. Cells were then subjected to a standard protocol for priming, trapping, breaking, and establishing whole cell configuration, with cells held at −60 mV throughout the recording. After recording baseline, progressive doses of test compounds were applied using the IonFlux software to assess dose response relationships. Data were then analyzed off-line using custom Python scripts to convert data to .csv format, re-plot traces, and apply QC measurements to reject unstable recordings (i.e. thresholding based on access resistance and/or standard deviation in baseline, as well as artifact rejection). Peak currents were then calculated and population data were fit using a 4-parameter logistic equation as described by the Hill Equation

[3] = target: T2, SEQ ID NO:33 with substitution L131T (Homo sapiens, UniProt P36544, F159M/H163T/I152M/L131T/R155K/V154L/W156N/Y151P); assay: as above; assay type: cell-based; conditions: FIG. 10D
T2 construct: expressed in transfected cells; host or cells: Lenti-X 293T (HEK293T) cells, pcDNA3.1(+) plasmid
T2 sequence (P36544 with tags, fused parts or gaps L131T/Y151P/I152M/V154L/R155K/W156N/F159M/H163T): as the sequence (P36544 with tags, fused parts or gaps L131S/Y151P/I152M/V154L/R155K/W156N/F159M/H163T) above, with S109T counted along it
Procedure: as §1

[4] = target: T3, SEQ ID NO:33 with substitution W77M (Homo sapiens, UniProt P36544, F159M/H163T/I152M/R155K/V154L/W156N/W77M/Y151P); assay: as above; assay type: cell-based; conditions: FIG. 10C
T3 construct: expressed in transfected cells; host or cells: Lenti-X 293T (HEK293T) cells, pcDNA3.1(+) plasmid
T3 sequence (P36544 with tags, fused parts or gaps W77M/Y151P/I152M/V154L/R155K/W156N/F159M/H163T): as the sequence (P36544 with tags, fused parts or gaps L131S/Y151P/I152M/V154L/R155K/W156N/F159M/H163T) above, with W55M, S109L counted along it
Procedure: as §1

[5] = target: T4, SEQ ID NO:33 with substitution S172D (Homo sapiens, UniProt P36544, F159M/H163T/I152M/R155K/S172D/V154L/W156N/Y151P); assay: as above; assay type: cell-based; conditions: FIG. 10B
T4 construct: expressed in transfected cells; host or cells: Lenti-X 293T (HEK293T) cells, pcDNA3.1(+) plasmid
T4 sequence (P36544 with tags, fused parts or gaps Y151P/I152M/V154L/R155K/W156N/F159M/H163T/S172D): as the sequence (P36544 with tags, fused parts or gaps L131S/Y151P/I152M/V154L/R155K/W156N/F159M/H163T) above, with S109L, S150D counted along it
Procedure: as §1

c1cnc2c(c1)C[C@@]1(CN3CCC1CC3)O2 [AZD-0328]
duration of the reversal of mechanical hypersensitivity ([1]; after single IP injection): at least 2 days | effect on mechanical threshold in the absence of vector ([1]; contralateral side): no measurable effect | mechanical thresholds after second IP injection ([1]; injected again on the third day, followed for 48 hours): recovery to non-injury baseline thresholds | reversal of mechanical hypersensitivity ([1]; high dose of ligand, all rats (Chimera 1-8)): complete reversal | reversal of mechanical hypersensitivity ([1]; low dose, rats receiving Chimera 1, 2, 4, 5, 6 and 8): complete reversal | reversal of mechanical hypersensitivity ([1]; low dose, rats receiving Chimera 3 and 7): partial reversal | right-ward shift in EC50 relative to parental chimera SEQ ID NO:33 [2]: 2 fold | right-ward shift in EC50 relative to parental chimera SEQ ID NO:33 [3]: ~1 log | right-ward shift in EC50 relative to parental chimera SEQ ID NO:33 [4]: > 2.5 log | right-ward shift in EC50 relative to parental chimera SEQ ID NO:33 [5]: 2 fold
